Source: patent US10039759B2, “Quinolines as FGFR kinase modulators” (priority 2011, dated 2018)

Key:
Format in all cases: cell-based
[1] = target: T1, Ba/F3-Flt3-transfected cells (Homo sapiens, UniProt P36888, cells depend on it, form not given); assay: Ba/F3-Flt3 (minus IL3 or plus IL3) cellular proliferation assay, Alamar Blue; conditions: minus IL3, 24 hours
T1 construct: BAF3-FLT3 (MIN IL3 Alamar Blue pIC50); other: minus IL3; 24 hours, Alamar Blue
T1 sequence (P36888 1-993): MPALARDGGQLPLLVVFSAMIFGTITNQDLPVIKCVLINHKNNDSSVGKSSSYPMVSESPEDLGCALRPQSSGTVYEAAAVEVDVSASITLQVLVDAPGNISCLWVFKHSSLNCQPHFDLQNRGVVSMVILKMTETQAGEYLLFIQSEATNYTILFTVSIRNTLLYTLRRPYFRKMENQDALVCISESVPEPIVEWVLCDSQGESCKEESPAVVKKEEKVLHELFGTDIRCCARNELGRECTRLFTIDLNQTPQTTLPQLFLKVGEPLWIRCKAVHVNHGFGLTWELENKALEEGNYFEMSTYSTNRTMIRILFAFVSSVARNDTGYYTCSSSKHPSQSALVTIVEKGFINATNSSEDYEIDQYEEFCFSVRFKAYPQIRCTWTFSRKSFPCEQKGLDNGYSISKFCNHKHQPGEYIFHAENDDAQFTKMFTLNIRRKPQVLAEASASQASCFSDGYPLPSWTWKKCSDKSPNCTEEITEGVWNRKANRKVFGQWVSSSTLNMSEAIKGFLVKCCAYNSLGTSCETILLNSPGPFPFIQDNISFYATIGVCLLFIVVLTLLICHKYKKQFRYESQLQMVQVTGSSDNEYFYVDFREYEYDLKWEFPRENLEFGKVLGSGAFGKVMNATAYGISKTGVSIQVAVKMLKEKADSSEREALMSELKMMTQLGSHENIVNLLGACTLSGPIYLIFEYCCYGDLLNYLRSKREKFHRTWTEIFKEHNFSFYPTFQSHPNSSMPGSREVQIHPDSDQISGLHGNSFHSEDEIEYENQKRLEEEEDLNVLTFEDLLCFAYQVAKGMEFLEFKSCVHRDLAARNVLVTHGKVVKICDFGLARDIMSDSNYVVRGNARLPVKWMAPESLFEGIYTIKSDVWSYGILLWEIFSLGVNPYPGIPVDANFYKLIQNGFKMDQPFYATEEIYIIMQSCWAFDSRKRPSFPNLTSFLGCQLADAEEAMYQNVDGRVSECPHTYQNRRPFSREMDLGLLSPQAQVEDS
Procedure: Ba/F3-Flt3 (Minus IL3 or Plus IL3) (Cellular Proliferation Assay)
(§1) In a 384 well plate, 100 nl of compound dilution in DMSO was sprayed before adding 50 μl cell culture medium (phenol red free RPMI-1640, 10% FBS, 2 mM L-Glutamine and 50 μg/ml Gentamycin) containing 20000 cells per well of Ba/F3-Flt3-transfected cells. Cells were put in an incubator at 37° C. and 5% CO2. After 24 hours, 10 μl of Alamar Blue solution (0.5 mM K3Fe(CN)6, 0.5 mM K4Fe(CN)6, 0.15 mM Resazurin and 100 mM Phosphate Buffer) was added to the wells, incubated for 4 hours at 37° C. and 5% CO2 before RFU's (Relative Fluorescence Units) (ex. 540 nm., em. 590 nm.) were measured in a fluorescence plate reader.
(§2) In this assay, the inhibitory effect of different compound concentrations (range 10 μM to 0.1 nM) was determined and used to calculate an IC50 (M) and pIC50 (−log IC50) value. As a counterscreen the same experiment was performed in the presence of 10 ng/ml murine IL3.

[2] = target: T2, Ba/F3-FGFR3-transfected cells (Homo sapiens, UniProt P22607, cells depend on it, form not given); assay: Ba/F3-FGFR3 (minus IL3 or plus IL3) cellular proliferation assay, Alamar Blue; conditions: minus IL3; 24 hours, Alamar Blue
T2 construct: BAF3-FGFR3 (MIN IL3 Alamar Blue- pIC50); other: minus IL3; 24 hours, Alamar Blue
T2 sequence (P22607 whole entry, change not shown): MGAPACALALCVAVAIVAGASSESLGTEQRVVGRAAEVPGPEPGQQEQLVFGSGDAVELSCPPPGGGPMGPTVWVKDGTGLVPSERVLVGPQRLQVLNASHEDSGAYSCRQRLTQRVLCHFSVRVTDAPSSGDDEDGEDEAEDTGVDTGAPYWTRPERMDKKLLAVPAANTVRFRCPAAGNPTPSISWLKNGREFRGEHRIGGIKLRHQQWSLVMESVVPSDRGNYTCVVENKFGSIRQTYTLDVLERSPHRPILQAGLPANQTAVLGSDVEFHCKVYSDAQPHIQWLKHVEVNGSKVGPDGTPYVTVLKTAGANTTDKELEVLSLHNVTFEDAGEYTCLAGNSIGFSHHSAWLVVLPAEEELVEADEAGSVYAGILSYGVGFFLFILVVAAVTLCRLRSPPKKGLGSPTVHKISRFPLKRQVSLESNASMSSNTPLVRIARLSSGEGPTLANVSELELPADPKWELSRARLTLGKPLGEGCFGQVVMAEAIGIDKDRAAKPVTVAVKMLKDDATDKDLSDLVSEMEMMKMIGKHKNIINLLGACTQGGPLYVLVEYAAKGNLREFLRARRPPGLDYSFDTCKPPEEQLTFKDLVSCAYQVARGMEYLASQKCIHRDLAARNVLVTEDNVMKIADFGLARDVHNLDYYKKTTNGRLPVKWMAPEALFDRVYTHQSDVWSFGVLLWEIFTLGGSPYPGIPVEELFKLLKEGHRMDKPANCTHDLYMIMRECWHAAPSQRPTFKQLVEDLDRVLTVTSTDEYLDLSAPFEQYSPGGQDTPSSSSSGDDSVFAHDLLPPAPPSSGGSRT
Procedure: Ba/F3-FGFR3 (Minus IL3 or Plus IL3) (Cellular Proliferation Assay)
as §1, with “Ba/F3-FGFR3-transfected” for “Ba/F3-Flt3-transfected”
as §2

[3] = target: T3, Ba/F3-KDR-transfected cells (Homo sapiens, UniProt P35968, cells depend on it, form not given); assay: Ba/F3-KDR (minus IL3 or plus IL3) cellular proliferation assay, Alamar Blue; conditions: minus IL3; 24 hours, Alamar Blue
T3 construct: BAF3-KDR (MIN IL3 Alamar Blue pIC50); other: minus IL3; 24 hours, Alamar Blue
T3 sequence (P35968 whole entry, change not shown): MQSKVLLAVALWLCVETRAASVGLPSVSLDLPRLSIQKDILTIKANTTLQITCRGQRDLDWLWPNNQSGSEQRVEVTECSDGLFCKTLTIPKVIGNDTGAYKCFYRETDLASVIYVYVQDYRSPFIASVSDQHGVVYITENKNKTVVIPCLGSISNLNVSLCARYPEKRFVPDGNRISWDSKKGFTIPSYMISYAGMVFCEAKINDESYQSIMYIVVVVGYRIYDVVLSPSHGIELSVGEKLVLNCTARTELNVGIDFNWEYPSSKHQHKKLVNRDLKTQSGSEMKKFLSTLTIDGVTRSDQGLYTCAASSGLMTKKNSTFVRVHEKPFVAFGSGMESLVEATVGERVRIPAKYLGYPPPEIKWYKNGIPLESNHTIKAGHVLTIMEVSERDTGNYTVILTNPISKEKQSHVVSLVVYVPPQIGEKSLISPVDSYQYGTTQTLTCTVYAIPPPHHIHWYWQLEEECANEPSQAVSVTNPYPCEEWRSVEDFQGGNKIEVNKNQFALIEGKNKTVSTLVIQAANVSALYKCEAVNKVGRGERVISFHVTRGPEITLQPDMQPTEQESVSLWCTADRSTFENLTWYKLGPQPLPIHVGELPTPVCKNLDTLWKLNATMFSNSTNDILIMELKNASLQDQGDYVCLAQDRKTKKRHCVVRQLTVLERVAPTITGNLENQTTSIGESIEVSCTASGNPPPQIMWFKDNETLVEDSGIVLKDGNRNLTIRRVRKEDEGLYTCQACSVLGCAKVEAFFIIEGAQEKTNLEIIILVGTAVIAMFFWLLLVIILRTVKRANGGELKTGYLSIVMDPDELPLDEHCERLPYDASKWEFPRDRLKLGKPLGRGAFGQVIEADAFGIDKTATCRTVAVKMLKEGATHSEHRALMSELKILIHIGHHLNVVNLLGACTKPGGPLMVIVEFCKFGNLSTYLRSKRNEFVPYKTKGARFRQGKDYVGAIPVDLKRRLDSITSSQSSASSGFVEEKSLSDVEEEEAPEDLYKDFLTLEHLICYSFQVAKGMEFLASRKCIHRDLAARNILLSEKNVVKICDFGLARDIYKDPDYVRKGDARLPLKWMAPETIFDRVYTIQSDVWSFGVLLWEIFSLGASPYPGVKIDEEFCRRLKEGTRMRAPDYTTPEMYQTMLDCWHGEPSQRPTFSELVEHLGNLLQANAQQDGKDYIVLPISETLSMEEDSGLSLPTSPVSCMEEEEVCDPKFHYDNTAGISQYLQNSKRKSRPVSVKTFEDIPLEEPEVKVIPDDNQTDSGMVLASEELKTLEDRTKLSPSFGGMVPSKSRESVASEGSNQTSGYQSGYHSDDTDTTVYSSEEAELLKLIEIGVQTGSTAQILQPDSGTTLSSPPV
Procedure: Ba/F3-KDR (Minus IL3 or Plus IL3) (Cellular Proliferation Assay)
as §1, with “Ba/F3-KDR-transfected” for “Ba/F3-Flt3-transfected”
as §2

[4] = target: Ba/F3-FGFR4-transfected cells (Homo sapiens, UniProt P22455); assay: Ba/F3-FGFR4 cellular proliferation assay, Alamar Blue; conditions: 24 hours
Chain of Ba/F3-FGFR4-transfected cells (P22455 whole entry, change not shown): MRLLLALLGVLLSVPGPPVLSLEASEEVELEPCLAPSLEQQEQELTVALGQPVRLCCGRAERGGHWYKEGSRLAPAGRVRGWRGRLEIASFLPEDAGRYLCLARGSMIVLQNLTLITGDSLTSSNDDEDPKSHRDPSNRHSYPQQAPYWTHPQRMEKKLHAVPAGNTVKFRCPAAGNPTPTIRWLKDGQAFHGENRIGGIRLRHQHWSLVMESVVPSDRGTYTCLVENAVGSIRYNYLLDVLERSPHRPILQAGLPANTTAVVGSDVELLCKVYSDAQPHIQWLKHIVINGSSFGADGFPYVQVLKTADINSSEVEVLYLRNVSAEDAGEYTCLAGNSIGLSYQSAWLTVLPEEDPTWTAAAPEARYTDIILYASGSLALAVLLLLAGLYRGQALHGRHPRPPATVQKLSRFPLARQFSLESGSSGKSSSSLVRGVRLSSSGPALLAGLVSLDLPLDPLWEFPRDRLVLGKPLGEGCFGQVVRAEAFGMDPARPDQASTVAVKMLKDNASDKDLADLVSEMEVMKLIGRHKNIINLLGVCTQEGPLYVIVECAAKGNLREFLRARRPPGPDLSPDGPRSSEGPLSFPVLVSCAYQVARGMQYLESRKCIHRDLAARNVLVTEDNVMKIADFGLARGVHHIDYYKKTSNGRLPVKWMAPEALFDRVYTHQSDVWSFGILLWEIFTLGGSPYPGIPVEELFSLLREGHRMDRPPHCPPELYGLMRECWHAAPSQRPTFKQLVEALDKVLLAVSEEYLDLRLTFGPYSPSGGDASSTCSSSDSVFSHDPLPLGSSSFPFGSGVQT
Procedure: Ba/F3-FGFR4 (Cellular Proliferation Assay)
as §1, with “Ba/F3-FGFR4-transfected” for “Ba/F3-Flt3-transfected”
In this assay, the inhibitory effect of different compound concentrations (range 10 μM to 0.1 nM) was determined and used to calculate an IC50 (M) and pIC50 (−log IC50) value.

Row | BAF3-FLT3 (MIN IL3 Alamar Blue pIC50) [1] | BAF3-FGFR3 (MIN IL3 Alamar Blue- pIC50) [2] | BAF3-KDR (MIN IL3 Alamar Blue pIC50) [3] | BAF3-FGFR 4 (pIC50) [4] | SMILES
1 | <5 | ~7.67 | 5.05 | 6.6 | COc1cc(OC)cc(N(CC(O)C(F)(F)F)c2ccc3ncc(-c4cnn(C)c4)cc3c2)c1 (single isomer, unassigned) [Compound 24]
2 | <5 | 6.76 | <5 | 6.07 | COc1cc(OC)cc(N(CC(O)C(F)(F)F)c2ccc3ncc(-c4cnn(C)c4)cc3c2)c1 (single isomer, unassigned) [Compound 25]
3 | ~5 | 7.555 | 5.635 | 7.19 | COc1cc(OC)cc(N(CCNC(C)C)c2ccc3ncc(-c4cnn(C)c4)cc3c2)c1 [Compound 1]
4 | 5.52 | 6.33 | 5.65 | 6.11 | COc1cc(OC)cc(N(CCO)c2ccc3ncc(-c4cnn(C)c4)cc3c2)c1 [Compound 3]
5 | 5.35 | 6.17 | 5.45 | 5.87 | COc1cc(OC)cc(N(CCCO)c2ccc3ncc(-c4cnn(C)c4)cc3c2)c1 [Compound 4]
6 | 5.06 | 5.67 | 5.18 | 5.5 | COc1cc(OC)cc(N(CCCNCC(F)(F)F)c2ccc3ncc(-c4cnn(C)c4)cc3c2)c1 [Compound 5]
7 | 5.2 | 5.79 | 5.07 | 5.4 | C#CCN(c1cc(OC)cc(OC)c1)c1ccc2ncc(-c3cnn(C)c3)cc2c1 [Compound 6]
8 | <5 | <5 | <5 | <5 | COc1cc(OC)cc(N(CC2CCN(c3nccc(OC)n3)C2)c2ccc3ncc(-c4cnn(C)c4)cc3c2)c1 (centres unmarked) [Compound 7]
9 | <5.47 | 6.14 | <5 | 5.64 | COc1cc(OC)cc(N(Cc2ncccn2)c2ccc3ncc(-c4cnn(C)c4)cc3c2)c1 [Compound 8]
10 | <5 | 6.17 | <5 | 5.18 | COc1cc(OC)cc(N(Cc2nccn2S(=O)(=O)N(C)C)c2ccc3ncc(-c4cnn(C)c4)cc3c2)c1 [Compound 9]
11 | <5 | 6.97 | 5.42 | 6.39 | COc1cc(OC)cc(N(CCCN)c2ccc3ncc(-c4cnn(C)c4)cc3c2)c1 [Compound 11]
12 | <5.47 | ~5.075 | <5 | <5 | COc1cc(OC)cc(C(O)c2ccc3ncc(-c4cnn(C)c4)cc3c2)c1 (centres unmarked) [Compound 12]
13 | <5 | ~6.95 | 5.45 | 6.7 | COc1cc(OC)cc(N(CCNC(C)C)c2ccc3ncc(-c4cnn(CCS(C)(=O)=O)c4)cc3c2)c1 [Compound 14]
14 | 5.19 | >8 | <5 | 8.21 | COc1cc(OC)cc(N(CC#Cc2nccc(OC)n2)c2ccc3ncc(-c4cnn(C)c4)cc3c2)c1 [Compound 16]
15 | <5 | 7.63 | <5 | 6.98 | COc1cc(OC)cc(N(CC#Cc2ncccc2OC)c2ccc3ncc(-c4cnn(C)c4)cc3c2)c1 [Compound 17]
16 | <5 | 7.22 | 5.01 | 6.57 | COc1cc(OC)cc(N(Cc2ncc[nH]2)c2ccc3ncc(-c4cnn(C)c4)cc3c2)c1 [Compound 18]
17 | 6.03 | 6.26 | 5.1 | 5.71 | COc1cc(OC)cc(N(CCCN2CCCO2)c2ccc3ncc(-c4cnn(C)c4)cc3c2)c1 [Compound 19]
18 | 5.09 | 7.57 | 5.49 | 6.79 | COc1cc(OC)cc(N(CCNC(C)C)c2ccc3ncc(-c4cn[nH]c4)cc3c2)c1 [Compound 21]

Row | SMILES | BAF3-FLT3 (MIN IL3 Alamar Blue pIC50) [1] | BAF3-FGFR3 (MIN IL3 Alamar Blue- pIC50) [2] | BAF3-KDR (MIN IL3 Alamar Blue pIC50) [3] | BAF3-FGFR 4 (pIC50) [4]
19 | COc1cc(OC)c(F)c(N(CCNC(C)C)c2ccc3ncc(-c4cnn(C)c4)cc3c2)c1 [Compound 2] | 5.34 | 7.86 | 6.18 | 7.83
20 | COc1cc(OC)cc(N(CCCN2CCCC2=O)c2ccc3ncc(-c4cnn(C)c4)cc3c2)c1 [Compound 10] | <5 | 6.2 | 5.11 | 5.63
